Laboratory results reported in the CheMixHub viscosity set.
± gives the uncertainty stated by the source.

Experiment: xn = mol fraction of the nth substance listed

CCCC[n+]1ccn(C)c1.[Cl][Al-]([Cl])([Cl])[Cl] + [Al+3].[Cl-].[Cl-].[Cl-]
viscosity [mPa·s], 101 kPa
Conditions | 293.15 K | 298.15 K | 303.15 K | 308.15 K | 313.15 K | 318.15 K | 323.15 K
x2 = 0.46 | 30.8 ± 1.3 | 27 ± 1.2 | 24.1 ± 1 | 21 ± 0.9 | 18.4 ± 0.8 | 16.4 ± 0.7 | 14.8 ± 0.6
x2 = 0.57 | 31.4 ± 1.4 | 27.3 ± 1.2 | 23.7 ± 1 | 20.8 ± 0.9 | 18.3 ± 0.8 | 16.4 ± 0.7 | 14.7 ± 0.6

CC(C)(C)O + CCCCCC
303.2 K, 101.33 kPa
Conditions | viscosity [mPa·s]
x2 = 0.05 | 2.298 ± 0.015
x2 = 0.1 | 1.677 ± 0.011
x2 = 0.15 | 1.306 ± 0.009
x2 = 0.2 | 1.052 ± 0.007
x2 = 0.3 | 0.749 ± 0.006
x2 = 0.4 | 0.568 ± 0.005
x2 = 0.5 | 0.465 ± 0.004
x2 = 0.6 | 0.41 ± 0.004
x2 = 0.7 | 0.361 ± 0.003
x2 = 0.8 | 0.319 ± 0.003
x2 = 0.85 | 0.302 ± 0.003
x2 = 0.9 | 0.289 ± 0.003
x2 = 0.95 | 0.281 ± 0.003

CCCCOC(=O)c1ccccc1 + CCCCCCCCCCCCCC
101 kPa
Conditions | viscosity [mPa·s]
298.15 K, x2 = 0.0346 | 2.623 ± 0.083
298.15 K, x2 = 0.0683 | 2.562 ± 0.081
298.15 K, x2 = 0.1072 | 2.49 ± 0.078
298.15 K, x2 = 0.1432 | 2.436 ± 0.077
298.15 K, x2 = 0.1795 | 2.38 ± 0.075
298.15 K, x2 = 0.2175 | 2.328 ± 0.074
298.15 K, x2 = 0.2506 | 2.282 ± 0.072
298.15 K, x2 = 0.2944 | 2.226 ± 0.071
298.15 K, x2 = 0.3362 | 2.186 ± 0.069
298.15 K, x2 = 0.3761 | 2.154 ± 0.069
298.15 K, x2 = 0.4036 | 2.128 ± 0.068
298.15 K, x2 = 0.472 | 2.08 ± 0.066
298.15 K, x2 = 0.5203 | 2.055 ± 0.066
298.15 K, x2 = 0.5754 | 2.03 ± 0.065
298.15 K, x2 = 0.6238 | 2.015 ± 0.065
298.15 K, x2 = 0.6833 | 1.995 ± 0.064
298.15 K, x2 = 0.7394 | 1.989 ± 0.064
298.15 K, x2 = 0.8084 | 1.99 ± 0.064
298.15 K, x2 = 0.8738 | 2.005 ± 0.065
308.15 K, x2 = 0.0474 | 2.117 ± 0.067
308.15 K, x2 = 0.0876 | 2.049 ± 0.065
308.15 K, x2 = 0.1255 | 1.995 ± 0.063
308.15 K, x2 = 0.1576 | 1.956 ± 0.062
308.15 K, x2 = 0.1932 | 1.916 ± 0.061
308.15 K, x2 = 0.2315 | 1.876 ± 0.059
308.15 K, x2 = 0.2692 | 1.842 ± 0.058
308.15 K, x2 = 0.3166 | 1.806 ± 0.057
308.15 K, x2 = 0.3536 | 1.783 ± 0.057
308.15 K, x2 = 0.3967 | 1.758 ± 0.056
308.15 K, x2 = 0.4455 | 1.735 ± 0.055
308.15 K, x2 = 0.4967 | 1.714 ± 0.055
308.15 K, x2 = 0.5574 | 1.696 ± 0.054
308.15 K, x2 = 0.5991 | 1.684 ± 0.054
308.15 K, x2 = 0.6454 | 1.675 ± 0.054
308.15 K, x2 = 0.7094 | 1.667 ± 0.054
308.15 K, x2 = 0.7691 | 1.664 ± 0.054
308.15 K, x2 = 0.8229 | 1.665 ± 0.054
308.15 K, x2 = 0.9132 | 1.68 ± 0.055
318.15 K, x2 = 0.0221 | 1.779 ± 0.056
318.15 K, x2 = 0.0602 | 1.728 ± 0.054
318.15 K, x2 = 0.0938 | 1.687 ± 0.053
318.15 K, x2 = 0.1331 | 1.646 ± 0.052
318.15 K, x2 = 0.1693 | 1.612 ± 0.051
318.15 K, x2 = 0.2101 | 1.576 ± 0.05
318.15 K, x2 = 0.249 | 1.546 ± 0.049
318.15 K, x2 = 0.2933 | 1.516 ± 0.048
318.15 K, x2 = 0.3356 | 1.491 ± 0.047
318.15 K, x2 = 0.3836 | 1.467 ± 0.047
318.15 K, x2 = 0.4273 | 1.448 ± 0.046
318.15 K, x2 = 0.4797 | 1.428 ± 0.046
318.15 K, x2 = 0.5267 | 1.413 ± 0.045
318.15 K, x2 = 0.5825 | 1.399 ± 0.045
318.15 K, x2 = 0.6341 | 1.388 ± 0.045
318.15 K, x2 = 0.6948 | 1.38 ± 0.045
318.15 K, x2 = 0.7506 | 1.377 ± 0.045
318.15 K, x2 = 0.8156 | 1.375 ± 0.045
318.15 K, x2 = 0.8778 | 1.381 ± 0.045

CCNCC + CCCCCC
viscosity [mPa·s], 101 kPa
Conditions | x2 = 0.0897 | x2 = 0.1836 | x2 = 0.2802 | x2 = 0.3738 | x2 = 0.474 | x2 = 0.5744 | x2 = 0.6849 | x2 = 0.7818 | x2 = 0.8954
298.15 K | 0.284 ± 0.003 | 0.281 ± 0.003 | 0.28 ± 0.003 | 0.278 ± 0.003 | 0.278 ± 0.003 | 0.279 ± 0.003 | 0.281 ± 0.003 | 0.283 ± 0.003 | 0.287 ± 0.003
313.15 K | 0.254 ± 0.003 | 0.251 ± 0.003 | 0.25 ± 0.003 | 0.249 ± 0.003 | 0.25 ± 0.01 | 0.25 ± 0.003 | 0.251 ± 0.003 | 0.254 ± 0.003 | 0.257 ± 0.003

CC(C)(C)O + CO
303.2 K, 101.33 kPa
Conditions | viscosity [mPa·s]
x2 = 0.05 | 3.285 ± 0.026
x2 = 0.1 | 3.166 ± 0.025
x2 = 0.15 | 3 ± 0.024
x2 = 0.2 | 2.806 ± 0.023
x2 = 0.3 | 2.4 ± 0.019
x2 = 0.4 | 2.016 ± 0.016
x2 = 0.5 | 1.649 ± 0.014
x2 = 0.6 | 1.36 ± 0.011
x2 = 0.7 | 1.069 ± 0.009
x2 = 0.8 | 0.842 ± 0.007
x2 = 0.85 | 0.746 ± 0.007
x2 = 0.9 | 0.658 ± 0.006
x2 = 0.95 | 0.574 ± 0.005

CCNCC + O
297.65 K, 101.33 kPa
Conditions | viscosity [mPa·s]
x1 = 0.0033 | 0.928 ± 0.011
x1 = 0.0087 | 1.051 ± 0.011
x1 = 0.0165 | 1.24 ± 0.013
x1 = 0.023 | 1.405 ± 0.014
x1 = 0.0271 | 1.508 ± 0.014
x1 = 0.0342 | 1.691 ± 0.016
x1 = 0.0458 | 1.985 ± 0.017
x1 = 0.0592 | 2.305 ± 0.02
x1 = 0.0733 | 2.604 ± 0.022
x1 = 0.0885 | 2.863 ± 0.023
x1 = 0.104 | 3.037 ± 0.025
x1 = 0.1203 | 3.096 ± 0.025
x1 = 0.1385 | 3.121 ± 0.025

COCCOCCOCCO + O
101.33 kPa
Conditions | viscosity [mPa·s]
298.15 K, x1 = 0.0497 | 2.531 ± 0.3
298.15 K, x1 = 0.0989 | 4.964 ± 0.32
298.15 K, x1 = 0.1415 | 6.443 ± 0.32
298.15 K, x1 = 0.2035 | 7.869 ± 0.33
298.15 K, x1 = 0.3069 | 8.456 ± 0.34
298.15 K, x1 = 0.4204 | 7.901 ± 0.33
298.15 K, x1 = 0.5037 | 7.472 ± 0.33
298.15 K, x1 = 0.6109 | 6.897 ± 0.33
298.15 K, x1 = 0.7651 | 6.754 ± 0.33
298.15 K, x1 = 0.84 | 6.754 ± 0.33
298.15 K, x1 = 0.8917 | 6.594 ± 0.33
308.15 K, x1 = 0.0226 | 1.317 ± 0.012
308.15 K, x1 = 0.0554 | 2.514 ± 0.021
308.15 K, x1 = 0.0964 | 3.669 ± 0.033
308.15 K, x1 = 0.1278 | 4.537 ± 0.044
308.15 K, x1 = 0.1726 | 5.437 ± 0.057
308.15 K, x1 = 0.2157 | 5.977 ± 0.067
308.15 K, x1 = 0.2434 | 6.176 ± 0.072
308.15 K, x1 = 0.302 | 6.38 ± 0.081
308.15 K, x1 = 0.3364 | 6.428 ± 0.085
308.15 K, x1 = 0.3687 | 6.422 ± 0.089
308.15 K, x1 = 0.3952 | 6.376 ± 0.091
308.15 K, x1 = 0.42 | 6.331 ± 0.093
308.15 K, x1 = 0.4712 | 6.215 ± 0.097
308.15 K, x1 = 0.5057 | 6.123 ± 0.1
308.15 K, x1 = 0.5471 | 6.022 ± 0.1
308.15 K, x1 = 0.6208 | 5.83 ± 0.11
308.15 K, x1 = 0.6681 | 5.716 ± 0.11
308.15 K, x1 = 0.6996 | 5.651 ± 0.11
308.15 K, x1 = 0.775 | 5.463 ± 0.12
308.15 K, x1 = 0.8279 | 5.355 ± 0.12
308.15 K, x1 = 0.8744 | 5.266 ± 0.12
308.15 K, x1 = 0.9499 | 5.134 ± 0.13
313.15 K, x1 = 0.0497 | 1.632 ± 0.3
313.15 K, x1 = 0.0989 | 2.994 ± 0.31
313.15 K, x1 = 0.1415 | 3.785 ± 0.31
313.15 K, x1 = 0.2035 | 4.556 ± 0.32
313.15 K, x1 = 0.3069 | 4.963 ± 0.32
313.15 K, x1 = 0.4204 | 4.933 ± 0.32
313.15 K, x1 = 0.5037 | 4.812 ± 0.32
313.15 K, x1 = 0.6109 | 4.728 ± 0.32
313.15 K, x1 = 0.7651 | 4.394 ± 0.32
313.15 K, x1 = 0.84 | 4.295 ± 0.32
313.15 K, x1 = 0.8917 | 4.236 ± 0.32
323.15 K, x1 = 0.0497 | 1.3 ± 0.3
323.15 K, x1 = 0.0989 | 2.266 ± 0.3
323.15 K, x1 = 0.1415 | 2.812 ± 0.31
323.15 K, x1 = 0.2035 | 3.375 ± 0.31
323.15 K, x1 = 0.3069 | 3.689 ± 0.31
323.15 K, x1 = 0.4204 | 3.709 ± 0.31
323.15 K, x1 = 0.5037 | 3.647 ± 0.31
323.15 K, x1 = 0.6109 | 3.566 ± 0.31
323.15 K, x1 = 0.7651 | 3.428 ± 0.31
323.15 K, x1 = 0.84 | 3.352 ± 0.31
323.15 K, x1 = 0.8917 | 3.307 ± 0.31

CC1OC(C)OC(C)O1 (configuration not stated) + CC1COC(=O)O1
viscosity [mPa·s], 101.3 kPa
Conditions | x1 = 0.091 | x1 = 0.2019 | x1 = 0.3007 | x1 = 0.4055 | x1 = 0.5011 | x1 = 0.6022 | x1 = 0.7006 | x1 = 0.8028 | x1 = 0.9028
293.15 K | 2.641 ± 0.043 | 2.499 ± 0.041 | 2.364 ± 0.039 | 2.215 ± 0.038 | 2.07 ± 0.036 | 1.91 ± 0.034 | 1.75 ± 0.031 | 1.577 ± 0.029 | 1.402 ± 0.026
298.15 K | – | – | – | – | – | – | – | 1.412 ± 0.026 | 1.26 ± 0.024
303.15 K | 2.161 ± 0.035 | 2.027 ± 0.033 | 1.907 ± 0.032 | 1.779 ± 0.03 | 1.661 ± 0.029 | 1.531 ± 0.027 | 1.402 ± 0.025 | 1.268 ± 0.023 | 1.134 ± 0.021
308.15 K | 1.969 ± 0.032 | 1.843 ± 0.031 | 1.732 ± 0.029 | 1.614 ± 0.028 | 1.505 ± 0.026 | 1.385 ± 0.025 | 1.267 ± 0.023 | 1.144 ± 0.021 | 1.024 ± 0.019
